According to US10780090B2, “Heteroaryl compounds useful as inhibitors of SUMO activating enzyme” (Millennium Pharmaceuticals, Inc., priority 2014, dated 2020):

Molecular target: recombinant human SAE enzyme (Homo sapiens (Human), UniProt Q9UBT2)
Test: SAE HTRF enzyme assay
Type: biochemical
Conditions: for Percent Inhibition: SAE inhibition at compound concentration 0.111 μM; for IC50: SAE inhibition, class symbols, legend in nM
Method in brief: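 HTRF read-out using Eu-cryptate anti-Flag and allophycocyanin anti-GST antibodies, added with EDTA stop buffer and read after 2 h at 24 °C. The preceding reaction ran 105 min at 24 °C: 0.11 nM recombinant SAE, 0.5 μM ATP, Sumo-Flag, Ubc9-GST, pH 7.5. Values given as single-concentration inhibition or IC50.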

Chain of recombinant human SAE enzyme (Q9UBT2 whole entry): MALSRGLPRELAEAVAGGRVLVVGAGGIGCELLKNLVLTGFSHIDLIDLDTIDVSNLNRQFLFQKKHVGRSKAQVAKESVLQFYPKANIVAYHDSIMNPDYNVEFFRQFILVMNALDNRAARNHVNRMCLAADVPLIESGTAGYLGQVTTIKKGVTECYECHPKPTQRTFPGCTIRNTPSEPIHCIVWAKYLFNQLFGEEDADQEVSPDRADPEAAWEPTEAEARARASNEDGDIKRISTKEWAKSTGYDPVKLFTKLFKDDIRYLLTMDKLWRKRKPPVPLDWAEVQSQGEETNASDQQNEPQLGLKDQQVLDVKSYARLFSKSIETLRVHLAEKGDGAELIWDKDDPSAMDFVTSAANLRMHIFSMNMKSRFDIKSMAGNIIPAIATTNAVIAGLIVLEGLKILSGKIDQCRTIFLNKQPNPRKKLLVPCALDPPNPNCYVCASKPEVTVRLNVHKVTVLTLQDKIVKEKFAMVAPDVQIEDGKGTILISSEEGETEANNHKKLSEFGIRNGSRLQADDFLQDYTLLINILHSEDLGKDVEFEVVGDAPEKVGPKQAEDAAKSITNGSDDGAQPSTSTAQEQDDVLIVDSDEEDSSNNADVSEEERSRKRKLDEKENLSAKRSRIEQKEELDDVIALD
Chain of recombinant human SAE enzyme (Q9UBE0 whole entry partner): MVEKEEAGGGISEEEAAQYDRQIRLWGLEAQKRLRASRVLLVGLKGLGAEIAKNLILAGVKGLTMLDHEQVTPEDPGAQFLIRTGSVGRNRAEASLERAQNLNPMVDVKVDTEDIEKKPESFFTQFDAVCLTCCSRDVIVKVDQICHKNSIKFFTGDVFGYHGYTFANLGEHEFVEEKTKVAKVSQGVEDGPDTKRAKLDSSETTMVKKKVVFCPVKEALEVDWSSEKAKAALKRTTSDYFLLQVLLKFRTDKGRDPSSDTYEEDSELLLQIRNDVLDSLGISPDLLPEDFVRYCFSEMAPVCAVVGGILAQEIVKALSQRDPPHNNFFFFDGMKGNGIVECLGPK

Structure (SMILES) | Percent Inhibition | IC50
Cc1ccc2c(n1)[C@H](c1cc(C(=O)c3cncnc3N[C@@H]3C[C@H](COS(N)(=O)=O)[C@@H](O)C3)sc1C)OCC2 (mixture of isomers) [I-291, [(1R,2S,4R)-2-hydroxy-4-{[5-({5-methyl-4-[(8S)-2-methyl-5,8-dihydro-6H-pyrano[3,4-b]pyridin-8-yl]-2-thienyl}carbonyl)pyrimidin-4-yl]amino}cyclopentyl]methyl sulfamate and [(1R,2S,4R)-2-hydroxy-4-{[5-({5-methyl-4-[(8R)-2-methyl-5,8-dihydro-6H-pyrano[3,4-b]pyridin-8-yl]-2-thienyl}carbonyl)pyrimidin-4-yl]amino}cyclopentyl]methyl sulfamate] | 99% | < 10 nM
NS(=O)(=O)OC[C@H]1C[C@@H](Nc2ncncc2C(=O)c2cc([C@@H]3OCC(F)(F)c4ccccc43)cs2)C[C@@H]1O (mixture of isomers) [I-293, [(1R,2S,4R)-4-{[5-({4-[(1R)-4,4-difluoro-3,4-dihydro-1H-isochromen-1-yl]-2-thienyl}carbonyl)pyrimidin-4-yl]amino}-2-hydroxycyclopentyl]methyl sulfamate and [(1R,2S,4R)-4-{[5-({4-[(1S)-4,4-difluoro-3,4-dihydro-1H-isochromen-1-yl]-2-thienyl}carbonyl)pyrimidin-4-yl]amino}-2-hydroxycyclopentyl]methyl sulfamate] | 98% | < 10 nM
NS(=O)(=O)OC[C@H]1C[C@@H](Nc2ncncc2C(=O)c2cc([C@H]3NCCc4ccccc43)cs2)[C@H](O)[C@@H]1O (mixture of isomers) [I-295, [(1R,2R,3S,4R)-2,3-dihydroxy-4-{[5-({4-[(1S)-1,2,3,4-tetrahydroisoquinolin-1-yl]-2-thienyl}carbonyl)pyrimidin-4-yl]amino}cyclopentyl]methyl sulfamate and [(1R,2R,3S,4R)-2,3-dihydroxy-4-{[5-({4-[(1R)-1,2,3,4-tetrahydroisoquinolin-1-yl]-2-thienyl}carbonyl)pyrimidin-4-yl]amino}cyclopentyl]methyl sulfamate] | 99% | < 10 nM
Cc1sc(C(=O)c2cncnc2N[C@@H]2C[C@H](COS(N)(=O)=O)[C@@H](O)C2)cc1[C@@H]1OCCn2c(C)cnc21 (mixture of isomers) [I-296, [(1R,2S,4R)-2-hydroxy-4-{[5-({5-methyl-4-[(8S)-3-methyl-5,6-dihydro-8H-imidazo[2,1-c][1,4]oxazin-8-yl]-2-thienyl}carbonyl)pyrimidin-4-yl]amino}cyclopentyl]methyl sulfamate and [(1R,2S,4R)-2-hydroxy-4-{[5-({5-methyl-4-[(8R)-3-methyl-5,6-dihydro-8H-imidazo[2,1-c][1,4]oxazin-8-yl]-2-thienyl}carbonyl)pyrimidin-4-yl]amino}cyclopentyl]methyl sulfamate] | 98% | < 10 nM
Cc1sc(C(=O)c2cncnc2N[C@@H]2C[C@H](COS(N)(=O)=O)[C@@H](O)C2)cc1[C@@H]1OCCc2ccc(C(F)(F)F)nc21.Cc1sc(C(=O)c2cncnc2N[C@@H]2C[C@H](COS(N)(=O)=O)[C@@H](O)C2)cc1[C@H]1OCCc2ccc(C(F)(F)F)nc21 (mixture of isomers) [I-297, [(1R,2S,4R)-2-hydroxy-4-{[5-({5-methyl-4-[(8S)-2-(trifluoromethyl)-5,8-dihydro-6H-pyrano[3,4-b]pyridin-8-yl]-2-thienyl}carbonyl)pyrimidin-4-yl]amino}cyclopentyl]methyl sulfamate and [(1R,2S,4R)-2-hydroxy-4-{[5-({5-methyl-4-[(8R)-2-(trifluoromethyl)-5,8-dihydro-6H-pyrano[3,4-b]pyridin-8-yl]-2-thienyl}carbonyl)pyrimidin-4-yl]amino}cyclopentyl]methyl sulfamate] | 96% | < 10 nM
